Measurements taken from paper PMC11901902, “Design, Synthesis, and Cytotoxicity Evaluation of Novel Indolin-2-One Based Molecules on Hepatocellular Carcinoma HepG2 Cells as Protein Kinase Inhibitors” (Molecules, 2025).
Read-outs that look alike come from different tables or passages of the source.

What was measured:
HepG-2 cells = assay: MTT cytotoxicity assay on HepG-2 cells; type: cell-based, human; details: Homo sapiens, HepG2; for viability at 1.25 µM: HepG-2, 1.25 µM; for viability at 1.25 µM / viability at 2.5 µM / viability at 5 µM / viability at 10 µM / viability at 20 µM / viability at 40 µM / viability at 80 µM / viability at 160 µM: Table S1; for viability at 2.5 µM: HepG-2, 2.5 µM; for viability at 5 µM: HepG-2, 5 µM; for viability at 10 µM: HepG-2, 10 µM; for viability at 20 µM: HepG-2, 20 µM; for viability at 40 µM: HepG-2, 40 µM; for viability at 80 µM: HepG-2, 80 µM; for viability at 160 µM: HepG-2, 160 µM; for IC50: MTT, 24 h treatment, mean of three experiments ± SEM
Experimental: (§1) Cytotoxic activity of the synthesized compounds was evaluated against HepG-2 and MCF-7 cancer cell lines using the MTT assay. The tested cell lines were obtained from the American Type Culture Collection (ATCC, […], USA) through the Tissue Culture Unit, The Egyptian Organization for Biological Products and Vaccines (Vacsera, Giza, Egypt). Indirubin, chemicals, and solvents were purchased from Sigma-Aldrich (St. Louis, MO, USA). The cells were grown on RPMI-1640 medium supplemented with 10% inactivated fetal calf serum and 50 µg/mL gentamycin. The cells were maintained at 37 °C in a humidified atmosphere with 5% CO2 and were sub-cultured two to three times per week. For antitumor assays, the tumor cell lines were suspended in the medium at concentration 5 × 10^4 cell/well in Corning® 96-well tissue culture plates (Corning, Corning, NY, USA), then incubated for 24 h. The tested molecules were then added to 96-well plates (six replicates) to achieve six concentrations for each compound. Six vehicle controls with media or 0.5% DMSO were run for each 96-well plate as a control. After incubating for 24 h, the numbers of viable cells were determined by the MTT test. Briefly, the media was removed from the 96 well plate and replaced with 100 µL of fresh culture RPMI 1640 medium without phenol red then 10 µL of the 12 mM MTT stock solution (5 mg of MTT in 1 mL of PBS) to each well including the untreated controls. The 96-well plates were then incubated at 37 °C and 5% CO2 for 4 h. An 85 µL aliquot of the media was removed from the wells, and 50 µL of DMSO was added to each well, mixed thoroughly with the pipette, and incubated at 37 °C for 10 min. Then, the optical density was measured at 590 nm with the microplate reader (SunRise, TECAN, Inc., Morrisville, NC, USA) to determine the number of viable cells, and the percentage of viability was calculated as […], where ODt is the mean optical density of wells treated with the tested sample and ODc is the mean optical density of untreated cells. The relation between surviving cells and drug concentration was plotted to obtain the survival curve of each tumor cell line after treatment with the specified compound. […] Each concentration was repeated four times.

MCF-7 cells = assay: MTT cytotoxicity assay on MCF-7 cells; type: cell-based; details: Homo sapiens, MCF7; for viability at 1.25 µM: MCF-7, 1.25 µM; for viability at 2.5 µM: MCF-7, 2.5 µM; for viability at 5 µM: MCF-7, 5 µM; for viability at 10 µM: MCF-7, 10 µM; for viability at 20 µM: MCF-7, 20 µM; for viability at 40 µM: MCF-7, 40 µM; for viability at 80 µM: MCF-7, 80 µM; for viability at 160 µM: MCF-7, 160 µM
Experimental: as §1

[1] = MTT, 24 h treatment, mean of three experiments ± SEM, read-out: IC50 (µM) MCF-7
[2] = Table S2, read-out: IC50 (µM) on MCF-7 cell line

SMILES | viability at 1.25 µM (HepG-2 cells) [%] | viability at 2.5 µM (HepG-2 cells) [%] | viability at 5 µM (HepG-2 cells) [%] | viability at 10 µM (HepG-2 cells) [%] | viability at 20 µM (HepG-2 cells) [%] | viability at 40 µM (HepG-2 cells) [%] | viability at 80 µM (HepG-2 cells) [%] | viability at 160 µM (HepG-2 cells) [%] | IC50 (HepG-2 cells) [µM] | viability at 1.25 µM (MCF-7 cells; Table S2) [%] | viability at 2.5 µM (MCF-7 cells; Table S2) [%] | viability at 5 µM (MCF-7 cells; Table S2) [%] | viability at 10 µM (MCF-7 cells; Table S2) [%] | viability at 20 µM (MCF-7 cells; Table S2) [%] | viability at 40 µM (MCF-7 cells; Table S2) [%] | viability at 80 µM (MCF-7 cells; Table S2) [%] | viability at 160 µM (MCF-7 cells; Table S2) [%] | IC50 (MCF-7 cells; [1]) [µM] | IC50 (MCF-7 cells; [2]) [µM]
O=C1Nc2ccccc2C1=Nc1ccc2nc[nH]c(=O)c2c1 [Compound 7, 6-(2-Oxo-1,2-dihydro-indol-3-ylideneamino)-3H-quinazolin-4-one] | 83.4 ± 6.9 | 70.9 ± 6 | 61.9 ± 5.1 | 49.3 ± 2.2 | 35.9 ± 2.1 | 26.5 ± 1.9 | 9.4 ± 0.4 | 7.2 ± 0.2 | 10.8 ± 0.92 | 101 ± 7.2 | 93.7 ± 8.2 | 87.6 ± 6.1 | 78.2 ± 5.3 | 66.3 ± 4 | 53.1 ± 2 | 45.2 ± 1.4 | 36.8 ± 1.2 | 21.9 ± 1.83 | 
O=C1Nc2ccc(F)cc2/C1=N/c1ccc2nc[nH]c(=O)c2c1 [Compound 8, 6-(5-Flouro-2-oxo-1,2-dihydro-indol-3-ylideneamino)-3H-quinazolin-4-one] | 88 ± 7.6 | 71.2 ± 6.1 | 62.3 ± 4.3 | 48.2 ± 1.8 | 33.6 ± 0.13 | 17.5 | 15.1 ± 1.4 | 9.3 ± 1.1 | 7.54 ± 0.53 | 104 ± 4.9 | 94.2 ± 4 | 87.9 ± 3.9 | 75.7 ± 3.2 | 57.1 ± 2.4 | 43.9 ± 2 | 29.7 ± 1.4 | 11.5 ± 0.7 | 52.8 ± 3.21 | 
O=C1Nc2ccc(Br)cc2C1=Nc1ccc2nc[nH]c(=O)c2c1 [Compound 10, 6-(5-Bromo-2-oxo-1,2-dihydro-indol-3-ylideneamino)-3H-quinazolin-4-one] | 91.2 ± 7 | 87.9 ± 8.1 | 83 ± 5.2 | 71.4 ± 4.5 | 58.7 ± 4.3 | 35.8 ± 2.1 | 19.4 ± 1.2 | 14.2 ± 0.9 | 28.1 ± 2.08 | 98.3 ± 7.4 | 99.1 ± 6.9 | 87.2 ± 5.7 | 76.5 ± 4 | 65.2 ± 2.8 | 55.4 ± 2.6 | 41.2 ± 2.8 | 25.4 ± 2.6 | > 100 | 112 ± 11.2
O=C1Nc2ccc([N+](=O)[O-])cc2C1=Nc1ccc2nc[nH]c(=O)c2c1 [Compound 11, 6-(5-Nitro-2-oxo-1,2-dihydro-indol-3-ylideneamino)-3H-quinazolin-4-one] | 99.2 ± 6.9 | 91.3 ± 7.9 | 89.4 ± 6.4 | 79.5 ± 5.5 | 67.1 ± 3.8 | 54.6 ± 1.9 | 44.1 ± 1.3 | 37.6 ± 1.1 | 20.9 ± 1.54 | 116 ± 6.4 | 97.5 ± 7 | 90.1 ± 6.4 | 86 ± 5.5 | 63.9 ± 3.8 | 39.1 ± 2.9 | 25.6 ± 1.3 | 11.2 ± 0.4 | 72.4 ± 6.51 | 
Cc1ccc2c(c1)C(=Nc1ccc3nc[nH]c(=O)c3c1)C(=O)N2 [Compound 12, 6-(5-Methyl-2-oxo-1,2-dihydro-indol-3-ylideneamino)-3H-quinazolin-4-one] | 96.4 ± 6.9 | 84.9 ± 6.1 | 81.8 ± 5.4 | 69.1 ± 4.1 | 58.9 ± 2.2 | 49.7 ± 1.7 | 36.3 ± 0.5 | 33.9 ± 1.2 | 31.9 ± 2.12 | 104 ± 5.4 | 91.4 ± 4.1 | 80 ± 4.2 | 69.2 ± 2.7 | 58.5 ± 1.5 | 30.1 ± 1.2 | 21.5 ± 1.5 | 9.15 ± 1.2 | 46.2 ± 2.47 | 
COc1ccc2c(c1)C(=Nc1ccc3nc[nH]c(=O)c3c1)C(=O)N2 [Compound 13, 6-(5-Methoxy-2-oxo-1,2-dihydro-indol-3-ylideneamino)-3H-quinazolin-4-one] | 88.2 ± 7.4 | 86.5 | 75.9 ± 4.6 | 61.5 ± 3.2 | 40.9 ± 2.7 | 26.6 ± 1.5 | 7.9 ± 0.9 | 3.9 ± 0.3 | 18.9 ± 1.05 | 109 ± 7.3 | 108 ± 7.4 | 99.6 ± 6.5 | 87.6 ± 4.6 | 71.9 ± 3.2 | 67.6 ± 2.7 | 60.8 ± 1.5 | 56.8 ± 0.9 | > 100 | 123 ± 13.2
O=C1Nc2ccccc2C1=Nc1ccc(-c2nc3ccccc3c(=O)[nH]2)cc1 [Compound 18, 2-[4-(2-Oxo-1,2-dihydro-indol-3-ylideneamino)-phenyl]-3H-quinazolin-4-one] | 78 ± 7.2 | 75.6 ± 6.8 | 73.5 ± 5.8 | 55.9 ± 4.1 | 40.4 ± 2.9 | 24.9 ± 2.8 | 4.54 ± 0.23 | 1.95 ± 0.19 | 82.4 ± 7.17 | 109 ± 6.2 | 92 ± 6.8 | 94.2 ± 5.8 | 80.8 ± 4.9 | 84.8 ± 2.9 | 83.8 ± 2.8 | 74.3 ± 1.2 | 67.9 ± 0.8 | > 100 | 143 ± 16.2
O=C1Nc2ccc(F)cc2/C1=N/c1ccc(-c2nc3ccccc3c(=O)[nH]2)cc1 [Compound 19, 2-[4-(5-Flouro-2-oxo-1,2-dihydro-indol-3-ylideneamino)-phenyl]-3H-quinazolin-4-one] | 68.4 ± 6.6 | 75 ± 5.3 | 72.3 ± 5.9 | 58.4 ± 3.5 | 46.3 ± 2.4 | 26.6 ± 1.7 | 13.6 ± 0.8 | 7.47 ± 0.2 | 28.4 ± 1.26 | 109 ± 6.6 | 99.3 ± 5.3 | 93.9 ± 4.9 | 81.2 ± 3.9 | 59 ± 2.4 | 36.4 ± 1.7 | 16.4 ± 1.8 | 12 ± 1.2 | 40.8 ± 3.24 | 
O=C1Nc2ccc(Br)cc2C1=Nc1ccc(-c2nc3ccccc3c(=O)[nH]2)cc1 [Compound 21, 2-[4-(5-Bromo-2-oxo-1,2-dihydro-indol-3-ylideneamino)-phenyl]-3H-quinazolin-4-one] | 98.3 ± 7.7 | 82.5 ± 6.8 | 77.8 ± 5.5 | 61.4 ± 4.6 | 47 ± 3.4 | 23 ± 1.5 | 9.33 ± 1.1 | 6.14 ± 0.9 | 23.7 ± 0.74 | 103 ± 7.7 | 99.6 ± 6.8 | 91.6 ± 5.5 | 78.2 ± 4.6 | 66.3 ± 3.4 | 33.2 ± 2.5 | 16 ± 1.1 | 10.3 ± 0.9 | 33.6 ± 2.33 | 
O=C1Nc2ccc([N+](=O)[O-])cc2C1=Nc1ccc(-c2nc3ccccc3c(=O)[nH]2)cc1 [Compound 22, 2-[4-(5-Nitro-2-oxo-1,2-dihydro-indol-3-ylideneamino)-phenyl]-3H-quinazolin-4-one] | 79.2 ± 7.2 | 73.3 ± 6.5 | 63 ± 5.9 | 48.5 ± 4.1 | 38 ± 3.8 | 26.1 ± 2.3 | 8.22 ± 0.5 | 4.17 ± 0.2 | 35.8 ± 2 | 109 ± 8 | 99.6 ± 7.4 | 95.3 ± 5.9 | 79.1 ± 5.1 | 63.6 ± 3.8 | 49.9 ± 3.3 | 23.5 ± 2.5 | 12.9 ± 1.3 | 14.9 ± 0.66 | 
